Assay results reported in US20150218212A1, “FLUORINATED EPOXYKETONE-BASED TETRAPEPTIDE COMPOUNDS AND USES THEREOF AS PROTEASOME INHIBITORS” (FLUORINOV PHARMA INC., priority 2012, published 2015).

How the values were obtained:
MOLT-4 = experiment: NCI screening panel, MOLT-4 (Leukemia); format: cell-based, human
Procedure: (§1) Representative compounds of Formula I were screened using the National Cancer Institute (NCI) screening panel, which consists of a panel of human tumor cell lines, representing leukemia, melanoma, and cancers of the lung, colon, ovary, breast, prostate and renal system.
(§2) After 24 h, two plates of each cell line are fixed in situ with TCA, to represent a measurement of the cell population for each cell line at the time of drug addition (Tz). Experimental drugs are solubilised in dimethyl sulfoxide at 400-fold the desired final maximum test concentration and stored frozen prior to use. At the time of drug addition, an aliquot of frozen concentrate is thawed and diluted to twice the desired final maximum test concentration with complete medium containing 50 μg/mL gentamicin. Additional four, 10-fold or ½ log serial dilutions are made to provide a total of five drug concentrations plus control. Aliquots of 100 μl of these different drug dilutions are added to the appropriate microtiter wells already containing 100 μl of medium, resulting in the required final drug concentrations.
(§3) Following drug addition, the plates are incubated for an additional 48 h at 37° C., 5% CO2, 95% air, and 100% relative humidity. For adherent cells, the assay is terminated by the addition of cold TCA (trichloroacetic acid). Cells are fixed in situ by the gentle addition of 50 μl of cold 50% (w/v) TCA (final concentration, 10% TCA) and incubated for 60 minutes at 4° C. The supernatant is discarded, and the plates are washed five times with tap water and air dried. Sulforhodamine B (SRB) solution (100 μl) at 0.4% (w/v) in 1% acetic acid is added to each well, and plates are incubated for 10 minutes at room temperature. After staining, unbound dye is removed by washing five times with 1% acetic acid and the plates are air dried. Bound stain is subsequently solubilised with 10 mM trizma base, and the absorbance is read on an automated plate reader at a wavelength of 515 nm. For suspension cells, the methodology is the same except that the assay is terminated by fixing settled cells at the bottom of the wells by gently adding 50 μl of 80% TCA (final concentration, 16% TCA). Using the seven absorbance measurements [time zero, (Tz), control growth, (C), and test growth in the presence of drug at the five concentration levels (Ti)], the percentage growth is calculated at each of the drug concentrations levels. Percentage growth inhibition is calculated as: [(Ti−Tz)/(C−Tz)]×100 for concentrations for which Ti>/=Tz and [(Ti−Tz)/Tz]×100 for concentrations for which Ti<Tz.
(§4) Three dose response parameters are calculated for each experimental agent. Growth inhibition of 50% (GI50) is calculated from [(Ti−Tz)/(C−Tz)]×100=50, which is the drug concentration resulting in a 50% reduction in the net protein increase (as measured by SRB staining) in control cells during the drug incubation. The drug concentration resulting in total growth inhibition (TGI) is calculated from Ti=Tz. The LC50 (concentration of drug resulting in a 50% reduction in the measured protein at the end of the drug treatment as compared to that at the beginning) indicating a net loss of cells following treatment is calculated from [(Ti−Tz)/Tz]×100=−50. Values are calculated for each of these three parameters if the level of activity is reached. However, if the effect is not reached or is exceeded, the value for that parameter is expressed as greater or less than the maximum or minimum concentration tested.

MALME-3M = experiment: NCI screening panel, MALME-3M (Melanoma); format: cell-based, human
Procedure: as §1, §2, §3, §4

A498 = experiment: NCI screening panel, A498 (Renal Cancer); format: cell-based, human
Procedure: as §1, §2, §3, §4

OCI-AML-2 = experiment: Cell viability (MTS) assay, OCI-AML-2; format: cell-based; conditions: Homo sapiens, OCI-AML2; OCI-AML-2, MTS, 72 hours, mean ± standard deviation
Procedure: Human multiple myeloma cell lines 8226, H929, JJN3, KMH11, KMS11, KMS18, LP1, MM1S, OPM2 and U266 were grown in Iscove modified Dulbecco's medium (IMDM). Human leukemia cell lines K562, OCI-AML2 and U937 were cultured in RPMI-1640 medium. Primary peripheral blood mononuclear cells were isolated from multiple myeloma patients by Ficoll density gradient centrifugation and bone marrow aspirates were obtained from multiple myeloma patients at the Princess Margaret Cancer Centre of the University Health Network (UHN; Toronto, ON, Canada). Primary cells were cultured in IMDM. The collection and use of human tissue for this study was approved by the UHN institutional ethics review board. All cell culture media were obtained from the Ontario Cancer Institute Tissue Culture Media Facility (Toronto, ON, Canada) and were supplemented with 10% fetal calf serum, […] (Hyclone, Logan, Utah). All cells were grown in a humidified incubator at 37° C. with 5% CO2.
Cellular viability was primarily assessed by 3-(4,5-dimethylthiazol-2-yl)-5-(3-carboxymethoxyphenyl)-2-(4-sulfophenyl)-2H-tetrazolium (MTS) assay according to the manufacturer's instructions (Promega; Madison, Wis.). Cells were first seeded at a density of 10,000 cells per well in tissue culture-treated 96-well plates. Two hours after seeding, cells were treated with compounds for 72 hours at concentrations as indicated. As a control, cells were treated with DMSO alone in every assay plate. Following treatment and the MTS assay, cell viability was independently confirmed by reading the optical density (O.D.) at 490 nm and by exclusion of trypan blue stain (Invitrogen; Burlington, ON, Canada). The viability of primary mononuclear cells was determined by staining with Annexin V.
Table 8 summarizes the data of representative compounds of Formula I for cell viability and CT-L proteasome activity with OCI-AML-2 and KMS-11 cell lines.

SNB-19 = experiment: NCI screening panel, SNB-19 (CNS Cancer); format: cell-based, human
Procedure: as §1, §2, §3, §4

Row | SMILES | Log10GI50 (MOLT-4) | Log10LC50 (MOLT-4) | Log10TGI50 (MOLT-4) | Log10GI50 (MALME-3M) | Log10LC50 (MALME-3M) | Log10TGI50 (MALME-3M) | Log10GI50 (A498) | Log10LC50 (A498) | Log10TGI50 (A498) | IC50 (OCI-AML-2) | Log10GI50 (SNB-19) | Log10LC50 (SNB-19) | Log10TGI50 (SNB-19)
1 | CC(C)C[C@H](NC(=O)[C@H](Cc1ccccc1)NC(=O)[C@H](COC(F)F)NC(=O)[C@H](COC(F)F)NC(=O)CN1CCOCC1)C(=O)[C@@]1(C)CO1 [Example 11, (2S)-2-[[(2S)-3-(difluoromethoxy)-2-[[(2S)-3-(difluoromethoxy)-2-[(2-morpholinoacetyl)-amino]propanoyl]amino]propanoyl]amino]-N-[(1S)-3-methyl-1-[(2R)-2-methyloxirane-2-carbonyl]butyl]-3-phenyl-propanamide] | <−8.00 | >−4.00 | −6.83 | −7.14 | >−4.00 | −6.30 | −7.64 | −6.08 | −7.00 | 15.7 ± 3.56 nM | −7.20 | >−4.00 | >−4.00
2 | CC(C)C[C@H](NC(=O)[C@H](COC(F)F)NC(=O)[C@H](COC(F)F)NC(=O)[C@H](CCc1ccccc1)NC(=O)CN1CCOCC1)C(=O)[C@@]1(C)CO1 [Example 7, (2S)-N-[(1S)-1-(difluoromethoxymethyl)-2-[[(1S)-1-(difluoromethoxymethyl)-2-[[(1S)-3-methyl-1-[(2R)-2-methyloxirane-2-carbo-nyl]butyl]amino]-2-oxo-ethyl]amino]-2-oxo-ethyl]-2-[(2-morpholinoacetyl)amino]-4-phenyl-butanamide] | −7.71 | >−4.00 | −6.85 | −7.39 | >−4.00 | −6.75 | −7.40 | −6.06 | −6.75 | 61.1 ± 10.1 nM | −7.14 | >−4.00 | >−4.00
3 | CC(C)C[C@H](NC(=O)[C@H](COC(F)F)NC(=O)CN1CCOCC1)C(=O)N[C@@H](Cc1ccccc1)C(=O)N[C@@H](CC(C)C)C(=O)[C@@]1(C)CO1 [Example 2, (2S)-N-[(1S)-1-benzyl-2-[[(1S)-3-methyl-1-[(2R)-2-methyloxirane-2-carbonyl]butyl]-amino]-2-oxo-ethyl]-2-[[(2S)-3-(difluoromethoxy)-2-[(2-morpholinoacetyl)amino]propanoyl]amino]-4-methyl-pentanamide] | <-8.00 | >−4.00 | −5.79 |  |  |  | −7.67 | −6.23 | −7.12 | 8.41 ± 2.24 nM | −7.18 | >−4.00 | >−4.00
4 | CC(C)C[C@H](NC(=O)[C@H](COC(F)F)NC(=O)CN1CCOCC1)C(=O)N[C@@H](Cc1ccccc1)C(=O)N[C@@H](Cc1ccccc1)C(=O)[C@@]1(C)CO1 [Example 3, (2S)-N-[(1S)-1-benzyl-2-[[(1S)-1-benzyl-2-[(2R)-2-methyloxiran-2-yl]-2-oxo-ethyl]amino]-2-oxo-ethyl]-2-[[(2S)-3-(difluoromethoxy)-2-[(2-morpholinoacetyl)-amino]propanoyl]amino]-4-methyl-pentan-amide] | <−8.00 |  | >−4.00 | −7.65 | >−4.00 | −7.07 | −7.97 | −6.34 | −7.26 | 16.3 ± 5.96 nM | −7.66 | >−4.00 | −4.54
5 | CC(C)C[C@H](NC(=O)[C@H](COC(F)F)NC(=O)CN1CCOCC1)C(=O)N[C@@H](COC(F)F)C(=O)N[C@@H](Cc1ccccc1)C(=O)[C@@]1(C)CO1 [Example 4, (2S)-N-[(1S)-2-[[(1S)-1-benzyl-2-[(2R)-2-methyloxiran-2-yl]-2-oxo-ethyl]amino]-1-(difluoromethoxymethyl)-2-oxo-ethyl]-2-[[(2S)-3-(difluoromethoxy)-2-[(2-mor-pholinoacetyl)amino]propanoyl]amino]-4 methyl-pentanamide] | −7.82 | >−4.00 | −7.07 | −7.49 | >−4.00 | −6.38 | −7.42 | −5.65 | −6.61 | 54.7 ± 10.8 nM | −7.14 | >−4.00 | >−4.00
6 | CC(C)C[C@H](NC(=O)[C@H](COC(F)F)NC(=O)[C@H](COC(F)F)NC(=O)[C@H](COC(F)F)NC(=O)CN1CCOCC1)C(=O)[C@@]1(C)CO1 [Example 17, (2S)-3-(difluoromethoxy)-N-[(1S)-1-(difluoromethoxymethyl)-2-[[(1S)-1-(difluoro-methoxymethyl)-2-[[(1S)-3-methyl-1-[(2R)-2-methyloxirane-2-carbonyl]butyl]amino]-2-oxo-ethyl]amino]-2-oxo-ethyl]-2-[(2-mor-pholinoacetyl)amino]-propanamide] | −7.42 | >−4.00 | −6.41 | −6.76 | >−4.00 | −6.09 | −6.87 | −5.44 | −6.22 | 136 ± 36.8 nM | −7.16 | >−4.00 | −4.67
7 | CC(C)C[C@H](NC(=O)[C@H](COC(F)F)NC(=O)CN1CCOCC1)C(=O)N[C@@H](COC(F)F)C(=O)N[C@@H](CC(C)C)C(=O)[C@@]1(C)CO1 [Example 1, (2S)—N-[(1S)-1-(difluoromethoxymethyl)-2-[[(1S)-3-methyl-1-[(2R)-2-methyloxirane-2-carbonyl]butyl]amino]-2-oxo-ethyl]-2-[[(2S)-3-(difluoromethoxy)-2-[(2-morpholinoacetyl)amino]propanoyl]amino]-4-methyl-pentanamide] | −7.57 | >−4.00 | −6.98 | −7.39 | >−4.00 | −6.49 | −7.59 | −6.06 | −6.93 | 24.2 ± 7.2 nM | −7.22 | >−4.00 | >−4.00
